In patent publication US20220152117A1, “METHODS OF PROMOTING CELLULAR MATURATION WITH AMPK ACTIVATORS” (UNIVERSITY OF WASHINGTON, priority 2019, published 2022):

Assays:
L6 myotube = conditions: literature study (ref 44); cited from earlier work
hPSC-CMs [1] = test: Immunocytochemistry, imaging and morphological analysis (cell size, circularity index); type: cell-based, human
Procedure: Cells were fixed in 4% paraformaldehyde for 10 min followed by PBS wash. The fixed cells were blocked with 1.5% normal goat serum for 1 hour at room temperature and incubated overnight at 4° C. with primary antibodies. Mouse anti-α-actinin (Sigma) was used. The samples were rinsed with PBS and incubated with a secondary antibody. Samples subjected to F-actin staining were incubated with TRITC-labeled phalloidin (Sigma) for 5 min at room temperature. Nuclei were stained with Hoechst 33342. Fluorescent images were acquired using a Zeiss AxioCam™ mounted on a Zeiss AxioObserver Microscope™, and confocal images were processed and quantified using NIS Elements. Each cell was analyzed for cell size and circularity index.

hPSC-CMs [2] = test: Western blotting with phospho-specific antibodies (pACC, pAMPK, pAkt, pERK, p-p38-MAPK); type: cell-based, human
Procedure: Total protein was acquired from control cardiomyocytes or cardiomyocytes after two weeks of AICAR treatment and subjected to SDS-PAGE. The lanes were loaded with equal amount of protein and were checked by Ponceau S staining. After blocking with 5% milk, the membranes were incubated with anti-pACC ([…]) rabbit polyclonal antibody (Cell Signaling Technology), anti-pAMPK, anti-pAkt, anti-pERK, anti-p38-MAPK, or anti-GAPDH mouse monoclonal antibody (Abcam) overnight while shaking at 4° C. After incubation with anti-rabbit (for pACC) and anti-mouse (for GAPDH, pAMPK, pAkt, pERK, and p-p38-MAPK) horseradish peroxidase-coupled secondary antibody (Santa Cruz Biotechnology®), bands were visualized with SuperSignal West Femto Trial KitTM (Thermo Scientific®). The immunoblots band densities were analyzed in Image J.

[3] = tested on: neurons derived from an FAD patient cell line harboring a duplication of the APP gene; test: Secreted amyloid beta peptides in neuronal culture media by ELISA; type: cell-based, human; conditions: three-week neuronal differentiation, at each week
Procedure: Undifferentiated human IMR90-induced pluripotent stem cells, originally derived from lung fibroblasts^22 (James A. Thomson, University of Wisconsin-Madison), were expanded using mouse embryonic fibroblast-conditioned medium supplemented with 5 ng/ml basic fibroblast growth factor. Cardiomyocytes were obtained using a previously described protocol^2 that involves the serial application of activin A and bone morphogenetic protein-4 (BMP4) under serum-free, monolayer culture conditions. The cultures were also supplemented with the Wnt agonist CHIR99021 in the early stages of differentiation followed by the Wnt antagonist Xav939. In this study, cardiomyocytes derived from human undifferentiated IMR90-induced stem cells were used, and for brevity, these are referred to human induced pluripotent stem cell-derived cardiomyocytes (hiPSC-CM). After 20 days of in vitro differentiation, the cells were dispersed using 0.05% trypsin-EDTA and re-plated. Cultures were fed every other day thereafter with serum-free RPMI-B27 plus insulin. Only cell preparations containing >80% cardiac troponin T-positive cardiomyocytes (by flow cytometry) were used for the current investigation. […]
Secreted Amyloid beta (Ab) peptides were measured from the neuronal culture media at one, two and three-week time points after AICAR treatment by ELISA assay (Meso Scale Discovery®).

Q: For NC(=O)c1ncn([C@@H]2O[C@H](CO)[C@@H](O)[C@H]2O)c1N [AICAR, 5-amino-4-imidazolecarboxamide riboside-1-β-D-ribofuranoside], which “ERK phosphorylation in L6 myotube” value (L6 myotube) is on record?
A: leads to ERK phosphorylation

Q: And the circularity index (hPSC-CMs [1]; AICAR-treated hPSC-CMs, control 0.51±0.01)?
A: 0.40±0.02

Q: And the cell area (hPSC-CMs [1]; AICAR-treated hiPSC-CMs, control 1141±40)?
A: 2321±120 μm^2

Q: What about the phopho-p38-MAPK (hPSC-CMs [2]; 1 mM AICAR, time course) of the same compound?
A: Transient increases

Q: And the phospho-ERK (hPSC-CMs [2]; 1 mM AICAR, time course)?
A: Transient increases

Q: And the phospho-Thr172-AMPK phosphorylation (hPSC-CMs [2]; 1 mM AICAR, time course)?
A: rapid robust transient

Q: What about the “phosphorylation of Akt at Ser473” value (hPSC-CMs [2]; 1 mM AICAR, time course) of the same compound?
A: increased

Q: And the “phosphorylation of Ser79-ACC” value (hPSC-CMs [2]; 1 mM AICAR, time course)?
A: rapid, time-dependent increase

Q: And the “phospho-ACC (Ser 79) level by immunoblot vs control cells” value (hPSC-CMs [2]; two weeks of AICAR treatment, same exposure conditions)?
A: more than one thousand-fold increase

Q: And the “levels of secreted Ab1-40 peptides” value [3]?
A: significantly reduced

Q: What about the “levels of secreted Ab1-42 peptides” value [3] of the same compound?
A: significantly reduced
